Results reported in patent publication US20120207742A1 (priority 2011, published 2012).

Test system: DU-145 cells
Format: cell-based, human

SMILES: C=C1[C@@H](C)[C@H]2[C@H](Cc3ccccc3)NC(=O)[C@]23[C@H](OC(C)=O)/C=C/[C@@](C)(O)C(=O)[C@@H](C)C/C=C/[C@H]3[C@@H]1O [Cytochalasin-D]
- effect on cell migration: did not migrate
